Assay results as given in US20260356823A1, “SODIUM CHANNEL REGULATOR AND USE THEREOF” (SHANGHAI HUILUN PHARMACEUTICAL CO., LTD., priority 2022, published 2026).

Assays:
human Nav1.8 = target: T1, human Nav1.8 (Homo sapiens, UniProt Q9Y5Y9); assay: In vitro inhibition of Nav1.8, manual patch clamp on HEK293 cells stably expressing human Nav1.8; type: cell-based; details: human Nav1.8, manual patch clamp; for inhibition at 0.1 µM: HEK293, 100 nM, read-out: Inhibitory activity (inhibition/% at 100 nM concentration)
T1 construct: expressed in transfected cells
Description: Bioactivity Test 1: In Vitro Inhibition of Nav1.8 by the Compound
By using a manual patch clamp on HEK293 cells stably expressing human Nav1.8, currents on Nav1.8 before and after administration of the compound were compared after the currents on Nav1.8 were stable, to obtain the effect of the compound on the Nav1.8 channel.
The to-be-tested compound was dissolved in DMSO to prepare a 9 mM stock solution, which was taken and dissolved in extracellular fluid at a desired concentration on the day of testing. The extracellular fluid included the following ingredients (mM): NaCl, 137; KCl, 4; CaCl2, 1.8; MgCl2, 1; HEPES, 10; glucose, 10; and pH 7.4 (NaOH titration). All reagents were purchased from Sigma (St. Louis, MO).
The cells were clamped at −80 mV and depolarized with a sustained 10 ms square wave to 10 mV to obtain a current on Nav1.8. This process was repeated every 5 seconds. A maximum current caused by the square wave was detected. After the current is stable, the to-be-tested compound (dissolved in the extracellular fluid at the desired concentration) was perfused. After the current is stable, the strength of blocking Nav1.8 by the compound was calculated based on the currents before and after perfusion of the compound. pCLAMP 10 (Molecular Devices, Union City, CA) was used. That the current is stable means that the current changes over time within a limited range.

Nav1.8 sodium channel = target: T2, Nav1.8 sodium channel (Homo sapiens, UniProt Q9Y5Y9); assay: In vitro inhibition IC50 of Nav1.8, whole-cell patch clamp on CHO cell line stably expressing Nav1.8 (SCN10A, NM_006514); type: cell-based; details: CHO cells stably expressing Nav1.8, whole-cell patch clamp, room temperature
T2 construct: expressed in transfected cells
Excerpt: Bioactivity Test 2: In Vitro Inhibition IC50 of Nav1.8 by the Test Compound
A CHO cell line stably expressing the Nav1.8 sodium channel was used for experimental assays with the following gene information: Sodium channel, voltage-gated, type 8, alpha (SCN10A), cDNA strictly similar to GenBank accession number: NM_006514.
Before the patch clamp assay, the cells were detached with 0.25%-Trypsin-EDTA, and 6.5×10^3 cells were spread onto cover slips and cultured in a 24-well plate (final volume: 500 μL) for 18 h. Then, the assay was carried out.
Fluids for electrophysiological recording included: extracellular fluid: K-007-1, 140 mM NaCl, 3.5 mM KCl, 1 mM MgCl2·6H2O, 2 mM CaCl2·2H2O, 10 mM D-Glucose, 10 mM HEPES, 1.25 mM NaH2PO4·2H2O, and NaOH for adjustment to pH=7.4; and intracellular fluid: Nav-001-2, 50 mM CsCl, 10 mM NaCl, 10 mM HEPES, 60 mM CsF, 20 mM EGTA, and […]. The extracellular fluid was stored for 2 weeks. The intracellular fluid was prepared and dispensed as 1 mL per tube, and frozen in a refrigerator at −20° C. Freshly thawed intracellular fluid was used for daily experiments. All intracellular fluids have to be used up within three months. Beyond three months, the old intracellular fluid has to be discarded, and the intracellular fluid needs to be prepared again.
Patch clamp assay: Whole-cell patch-clamp recording Nav1.8 sodium currents under voltage stimulation was carried out as follows: When a whole-cell seal was formed, the cell was clamped at a voltage of −120 mV and maintained for 30 ms. The cell was depolarized from the clamping voltage to 0 mV and maintained for 50 ms. Then, the voltage was restored to −50 mV (for a specific voltage, refer to a half-inactivation voltage from an IV test) and maintained for 5 s. Next, the cell membrane potential was restored to −120 mV and maintained for 20 ms. Then, the cell was depolarized to 0 mV and maintained for 50 ms. Finally, the voltage was restored to the clamping voltage −120 mV and maintained for 30 ms. Data was collected at […]. The effect of the drug on a peak sodium current was observed. Experimental data was collected by an EPC 10 amplifier (HEKA) and stored in PatchMaster (HEKA) software.
A capillary glass tube was pulled into a recording electrode by using a microelectrode puller. The electrode filled with the intracellular fluid was loaded into an electrode holder. A microelectrode manipulator was manipulated under an inverted microscope to immerse the electrode into the extracellular fluid, and an electrode resistance (Rpip) was recorded. The electrode was brought into contact with the cell surface, and suction was applied under negative pressure to form a high-resistance seal (GQ). In this case, fast capacitance compensation was carried out, and negative pressure was then applied to break the cell membrane through suction to form a whole-cell recording mode. Then, slow capacitance compensation was carried out, and experimental parameters such as a membrane capacitance (Cm) and a series resistance (Rs) were recorded. No leakage compensation was carried out.
The drug was administered after the Nav1.8 current obtained by whole-cell recording. The drug acted at each concentration for 5 min (or until the current was stable), and then the drug was tested at a next concentration. Each test compound was tested for multiple concentrations. The cover slips with the cells spread were placed in a recording bath under an inverted microscope. A blank control extracellular fluid and a working solution of the to-be-tested compound were perfused by gravity through the recording bath into the cells from low concentration to high concentration. Fluid exchange was carried out by using a peristaltic pump during the recording. A current detected for each cell in the compound-free extracellular fluid served as its own control. For each concentration, at least three cells were tested independently for three times. […]

T2 sequence (Q9Y5Y9 whole entry): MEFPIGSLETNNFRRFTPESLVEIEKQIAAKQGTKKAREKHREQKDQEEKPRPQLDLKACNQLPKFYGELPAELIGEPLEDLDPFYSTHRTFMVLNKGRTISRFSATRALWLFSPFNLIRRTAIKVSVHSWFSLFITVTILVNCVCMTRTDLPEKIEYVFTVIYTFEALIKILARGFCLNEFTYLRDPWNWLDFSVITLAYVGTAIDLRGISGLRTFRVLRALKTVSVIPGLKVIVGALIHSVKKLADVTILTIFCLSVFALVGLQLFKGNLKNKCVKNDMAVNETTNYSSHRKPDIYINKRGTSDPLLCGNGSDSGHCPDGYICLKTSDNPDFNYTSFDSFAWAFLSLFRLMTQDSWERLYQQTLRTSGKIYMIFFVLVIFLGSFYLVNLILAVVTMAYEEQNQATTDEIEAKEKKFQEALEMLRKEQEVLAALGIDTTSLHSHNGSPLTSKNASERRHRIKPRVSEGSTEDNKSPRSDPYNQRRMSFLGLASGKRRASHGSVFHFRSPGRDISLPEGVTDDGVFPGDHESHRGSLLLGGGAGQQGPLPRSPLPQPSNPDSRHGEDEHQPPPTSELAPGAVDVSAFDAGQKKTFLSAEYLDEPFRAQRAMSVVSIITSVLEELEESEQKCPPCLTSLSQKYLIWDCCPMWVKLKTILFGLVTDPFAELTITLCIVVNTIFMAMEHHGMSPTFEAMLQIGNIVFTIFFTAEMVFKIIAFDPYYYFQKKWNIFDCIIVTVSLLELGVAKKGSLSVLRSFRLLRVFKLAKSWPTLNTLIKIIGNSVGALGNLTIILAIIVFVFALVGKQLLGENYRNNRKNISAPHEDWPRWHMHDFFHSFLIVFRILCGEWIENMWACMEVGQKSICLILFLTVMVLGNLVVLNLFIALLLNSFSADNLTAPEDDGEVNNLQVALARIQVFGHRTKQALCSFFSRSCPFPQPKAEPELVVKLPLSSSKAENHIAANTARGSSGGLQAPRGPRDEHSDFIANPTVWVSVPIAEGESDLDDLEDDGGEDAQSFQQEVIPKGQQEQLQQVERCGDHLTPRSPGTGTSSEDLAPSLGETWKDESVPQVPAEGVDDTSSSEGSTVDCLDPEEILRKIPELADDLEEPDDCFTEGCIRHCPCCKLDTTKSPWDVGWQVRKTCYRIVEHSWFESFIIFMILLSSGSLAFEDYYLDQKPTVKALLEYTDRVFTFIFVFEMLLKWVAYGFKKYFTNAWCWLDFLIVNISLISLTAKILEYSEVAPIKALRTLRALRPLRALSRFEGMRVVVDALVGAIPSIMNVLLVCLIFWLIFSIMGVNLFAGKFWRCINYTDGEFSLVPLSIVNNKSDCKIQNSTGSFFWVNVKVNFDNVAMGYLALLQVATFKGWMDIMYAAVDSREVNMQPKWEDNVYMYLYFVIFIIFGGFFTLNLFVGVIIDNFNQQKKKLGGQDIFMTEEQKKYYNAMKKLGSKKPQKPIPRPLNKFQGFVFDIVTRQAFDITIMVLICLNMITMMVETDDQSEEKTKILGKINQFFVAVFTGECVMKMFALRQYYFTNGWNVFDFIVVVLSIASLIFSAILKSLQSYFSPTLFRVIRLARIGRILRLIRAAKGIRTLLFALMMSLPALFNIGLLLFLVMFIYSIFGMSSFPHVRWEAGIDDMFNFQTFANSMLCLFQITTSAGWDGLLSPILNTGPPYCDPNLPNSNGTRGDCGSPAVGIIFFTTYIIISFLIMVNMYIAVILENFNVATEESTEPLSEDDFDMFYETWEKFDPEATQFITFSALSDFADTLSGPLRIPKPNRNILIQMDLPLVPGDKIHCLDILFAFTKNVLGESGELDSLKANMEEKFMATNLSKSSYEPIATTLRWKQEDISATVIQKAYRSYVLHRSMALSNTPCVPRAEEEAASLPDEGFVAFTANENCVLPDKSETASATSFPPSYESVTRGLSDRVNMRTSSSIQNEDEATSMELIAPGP
T1 sequence (Q9Y5Y9 whole entry): as above

Row | Inhibitory activity (inhibition/% at 100 nM concentration) (human Nav1.8; 100 nM, 0.1 µM) | IC50 (Nav1.8 sodium channel) | inhibition at 0.1 µM (human Nav1.8) | Compound
1 | A (A ≥ 50) | < 0.5 nM |  | COc1c(C2C(C(=O)Nc3ccc(C(N)=O)c(C(N)=O)c3)OC(C)(C(F)(F)F)C2C)ccc(F)c1F (single isomer, unassigned) [Example 30-2]
2 |  | 3 nM | ≥ 50% | COc1c([C@H]2[C@H](C(=O)Nc3ccnc(S(N)(=O)=O)c3)O[C@]3(C(F)(F)F)CC[C@]23C)ccc(F)c1F (relative stereo) [Example 87, rel-(1R,3R,4S,5R)-4-(3,4-difluoro-2-methoxyphenyl)-5-methyl-N-(2-sulfamoylpyridin-4-yl)-1-trifluoromethyl-2-oxabicyclo[3.2.0]heptane-3-carboxamide]
3 |  | < 1 nM | ≥ 50% | COc1c([C@H]2[C@H](C(=O)Nc3ccc(F)c(C(N)=O)c3)O[C@]3(C(F)(F)F)CC[C@]23C)ccc(F)c1F (relative stereo) [Example 85, rel-(1R,3R,4S,5R)—N-(3-carbamoyl-4-fluorophenyl)-4-(3,4-difluoro-2-methoxyphenyl)-5-methyl-1-trifluoromethyl-2-oxabicyclo[3.2.0]heptane-3-carboxamide]
4 |  | < 1 nM | ≥ 50% | [2H]C([2H])([2H])NS(=O)(=O)c1cc(NC(=O)[C@@H]2O[C@@](C)(C(F)(F)F)[C@@H](C)[C@H]2c2ccc(F)c(F)c2OC)ccn1 (relative stereo) [Example 82, rel-(2R,3S,4S,5R)-3-(3,4-difluoro-2-methoxyphenyl)-4,5-dimethyl-N-(2-(N-(methyl-d3)sulfamoyl)pyridin-4-yl)-5-(trifluoromethyl)tetrahydrofuran-2-carboxamide]
5 |  | 26 nM | ≥ 50% | CONC(=O)c1cc(NC(=O)[C@@H]2O[C@@](C)(C(F)(F)F)[C@@H](C)[C@H]2c2ccc(F)c(F)c2OC)ccn1 (relative stereo) [Example 21]
6 |  | 9 nM | ≥ 50% | COc1c([C@H]2[C@H](C(=O)Nc3ccc4cn[nH]c(=O)c4c3)O[C@@](C)(C(F)(F)F)[C@H]2C)ccc(F)c1F (relative stereo) [Example 3, rel-(2R,3S,4S,5R)-3-(3,4-difluoro-2-methoxyphenyl)-4,5-dimethyl-N-4-oxa-3,4-dihydrophthalazin-6-yl)-5-(trifluoromethyl)tetrahydrofuran-2-carboxamide]
7 |  |  | ≥ 50% | COc1c([C@H]2C(C(=O)Nc3ccc(S(N)(=O)=O)nc3)O[C@]3(C(F)(F)F)CC[C@]23C)ccc(F)c1F (stereo partly drawn) [Example 99]
8 |  |  | ≥ 50% | COc1c([C@H]2[C@H](C(=O)Nc3ccnc(C(N)=S)c3)O[C@@](C)(C(F)(F)F)[C@H]2C)ccc(F)c1F (relative stereo) [Example 22, rel-(2R,3S,4S,5R)—N-[2-(aminothiomethylidene)pyridin-4-yl]-3-(3,4-difluoro-2-methoxyphenyl)-4,5-dimethyl-5-(trifluoromethyl)tetrahydrofuran-2-carboxamide]
9 |  |  | < 50% | COc1c(C2C(C(=O)Nc3ccc(C(N)=O)c(C(N)=O)c3)OC(C)(C(F)(F)F)C2C)ccc(F)c1F (single isomer, unassigned) [Example 30-1]
10 |  |  | ≥ 50% | COc1c([C@H]2[C@H](C(=O)Nc3ccnc4c(N)nccc34)O[C@@](C)(C(F)(F)F)[C@H]2C)ccc(F)c1F [Example 7]
11 |  |  | ≥ 50% | COc1c([C@H]2C(C(=O)Nc3ccnc(S(C)(=N)=O)c3)O[C@]3(C(F)(F)F)CC[C@]23C)ccc(F)c1F (relative stereo) [Example 93, rel-(1R,3R,4S,5R)-4-(3,4-difluoro-2-methoxyphenyl)-5-methyl-N-(2-(S-methylsulfoximine)pyridin-4-yl)-1-(trifluoromethyl)-2-oxabicyclo[3.2.0]heptane-3-carboxamide]
12 |  |  | ≥ 50% | COc1c([C@H]2[C@H](C(=O)Nc3cc(F)[nH]c(=O)c3)O[C@@](C)(C(F)(F)F)[C@H]2C)ccc(F)c1F (relative stereo) [Example 24, rel-(2R,3S,4S,5R)-3-(3,4-difluoro-2-methoxyphenyl)-N-(6-fluoro-2-oxo-1H-pyridin-4-yl)-4,5-dimethyl-5-(trifluoromethyl)tetrahydrofuran-2-carboxamide]
13 |  |  | ≥ 50% | COc1c([C@H]2[C@H](C(=O)Nc3ccc4c(c3)CNC4=O)O[C@@](C)(C(F)(F)F)[C@H]2C)ccc(F)c1F (relative stereo) [Example 8, rel-(2R,3S,4S,5R)-3-(3,4-difluoro-2-methoxyphenyl)-4,5-dimethyl-N-(1-oxo-2,3-dihydro-1H-isoindol-5-yl)-5-(trifluoromethyl)tetrahydrofuran-2-carboxamide]
14 |  |  | ≥ 50% | COc1c(C2C(C(=O)Nc3cc(F)c(C(N)=O)c(C(N)=O)c3)OC(C)(C(F)(F)F)C2C)ccc(F)c1F [Example 80, rel-5-((2R,3S,4S,5R)-3-(3,4-difluoro-2-methoxyphenyl)-4,5-dimethyl-5-(trifluoromethyl)tetrahydrofuran-2-carboxamide)-3-fluorophthalic amine]
15 |  |  | ≥ 50% | COc1c([C@H]2[C@H](C(=O)Nc3ccc4c(c3)C(=O)OOC4N)O[C@@](C)(C(F)(F)F)[C@H]2C)ccc(F)c1F (relative stereo) [Example 13, rel-(2R,3S,4S,5R)—N-(1-amino-4-oxo-3H-benzo[2,1-d][1,2]dioxine-6-yl)-3-(3,4-difluoro-2-methoxyphenyl)-4,5-dimethyl-5-(trifluoromethyl)tetrahydrofuran-2-carboxamide]
16 |  |  | ≥ 50% | COc1c([C@H]2[C@H](C(=O)Nc3ccnc(C(=O)N4CCCO4)c3)O[C@@](C)(C(F)(F)F)[C@H]2C)ccc(F)c1F (relative stereo) [Example 32, rel-(2R,3S,4S,5R)-3-(3,4-difluoro-2-methoxyphenyl)-4,5-dimethyl-N-[2-(tetrahydroisoxazol-2-ylcarbonyl)pyridin-4-yl]-5-(trifluoromethyl)tetrahydrofuran-2-carboxamide]
17 |  |  | ≥ 50% | CN=S(C)(=O)c1cc(NC(=O)C2O[C@]3(C(F)(F)F)CC[C@]3(C)[C@H]2c2ccc(F)c(F)c2OC)ccn1 (relative stereo) [Example 94, rel-(1R,3R,4S,5R)-4-(3,4-difluoro-2-methoxyphenyl)-N-(2-(N,S-dimethylsulfonyl)pyridin-4-yl)-5-methyl-1-(trifluoromethyl)-2-oxabicyclo[3.2.0]heptane-3-carboxamide]
18 |  |  | ≥ 50% | COc1c(C2C(C(=O)Nc3ccc(C(N)=O)c(C(N)=O)c3)OC3(C(F)(F)F)CCC23C)ccc(F)c1F [Example 86, rel-4-((1R,3R,4S,5R)-4-(3,4-difluoro-2-methoxyphenyl)-5-methyl-1-(trifluoromethyl)-2-oxabicyclo[3.2.0]heptane-3-formylamino)phthalamide]
